The values that follow come from US6812037B1, “Antimitotic compounds” (The University of British Columbia, priority 1999, dated 2004).

For data set [1], the system named is MCF-7 cells. Kind of data set: ELICA of mitotic cells (Enzyme-Linked Immuno-Cytochemical assay, TG-3 antibody). The data set is classed as cell-based, human. The method, then:
(§1) Cell Culture and Treatment. Human breast carcinoma MCF-7 cells were cultured as monolayers. The cells were seeded at 10,000 per well of 96-well polystyrene tissue culture plates (Falcon) in 200 μl medium and were allowed to grow overnight. Crude extracts of marine organisms were then added at about 10 μg/ml or 1 μg/ml, from 1000-fold stocks in dimethylsulfoxide (DMSO). Untreated samples received an equivalent amount of DMSO and several as negative controls. Cells treated with 100 ng/ml nocodazole (Sigma), from a 1000-fold stock in DMSO, served as positive controls. Cells were incubated for 16-20 hours. The relative number of cells in mitosis was then determined by microscopy, by enzyme-linked immunosorbent assay (ELISA) or by an enzyme-linked cytochemical assay (ELICA), as described below.
ELICA of Miltotic Cells. While the ELISA is accurate and reliable, it requires transferring cell lysates to ELISA plates and many solution changes. The assay of this invention is faster and easier to use for drug screening. […] In a preferred assay of this invention, cells are fixed with formaldehyde in their microtiter culture plates and permeabilized with methanol and detergents. The TG-3 primary antibody and HRP-conjugated secondary antibody may be added sequentially but are preferably added simultaneously. Colorimetric detection of HRP activity remains unchanged. This new assay is termed: an Enzyme-Linked Immuno-Cytochemical assay (ELICA).
After incubation with marine extracts, the medium was withdrawn carefully using a pipetor and 100 μl of 10 mM Tris-HCl (pH 7.4) 150 mM NaCl, containing 3.7% formaldehyde was added to fix the cells for 30 minutes at 4° C. The fixative was removed and replaced with 100 μl of cold (−20° C.) methanol for 5 minutes to permeabilize the fixed cells. The methanol was removed and the wells were rinsed briefly with 200 μl antibody buffer. Then, 100 μl antibody buffer containing 0.1-0.15 μg/ml TG-3 monoclonal antibody and HRP-conjugated goat anti-mouse IgM secondary antibody at a 50-fold dilution, was added to 16-20 hours at 4° C. The plates were washed twice with 200 μl 10 mM Tris-HCl pH 7.4, 0.02% Tween 20™. Then, 100 μl of 120 mM Na2HPO4, 100 mM citric acid (pH 4.0) containing […] 2,2′-azino-bis(-3ethylbenz-thiazoline-6-sulfonic acid) and 0.01% hydrogen peroxide was added for 1 hour at room temperature and the absorbance at 405 nm was measured.

For data set [2], the system named is MCF-7 cells. Kind of data set: Mitotic arrest of MCF-7 cells, counting mitotic cells by microscopy (mitotic spreads). The format is cell-based, human. The method, then: as §1
Screens for Antimitotic Agents. MCF-7 cells were incubated for 20 hours with different concentrations of the antimitotic drug paclitaxel, and the proportion of cells arrested in mitosis was measured by counting mitotic cells in the microscope, and by ELISA. Paclitaxel induced mitotic arrest in a concentration-dependent manner with half-maximal activity at 10 nM measured by microscopy (FIG. 1A) and at 4 nM measured by ELISA (FIG. 1B, □)
Further comparison of the antimitotic activities of eleutherobin and desmethyleleutherobin was done using microscopic examination of a standard cell spread.

For data set [3], the system named is SCCVII squamous cell carcinoma. Kind of data set: In vivo antimitotic/anticancer activity, tumor cell survival by colony formation. Details: species or system C3H mice. The method, then:
In Vivo Antimitotic/Anticancer Activity. C3H mice of approximately 26 g bearing SCCVII squamous cell carcinoma (tumor size approximately 0.45 g) were injected intraperitoneally with desmethyleleutherobin. 24 hours later, the mice were intravenously injected with Hoechst 33342™ and then sacrificed. The tumors were removed and single cell suspensions prepared and sorted on the basis of a concentration gradient of Hoechst 33342™, to provide cells sorted according to varying distance from the blood supply. The cells were plated and survival analyzed by observing colony formation.

Data set [4] has as its system MCF-7 cells. In words: Western blot with TG-3 antibody, densitometric scanning of the 105-kDa band. To be noted: cells treated for 20 hours with nocodazole vs cycling MCF-7 cells. The data set is classed as cell-based, human. The method, then: The TG-3 monoclonal antibody, originally described as a marker of Alzheimer's disease, is highly specific for mitotic cells. […] In Western blots, the antibody reacts with a 105-kDa protein identified as a mitotically phosphorylated form of nucleolin, that is present in abundance in extracts of cells treated for 20 hours with the antimitotic agent nocodazole but present at only low levels in extracts from cycling MCF-7 cells. Densitometric scanning of the bands on Western blots in these examples show a 27-fold difference in intensity between nocodazole-treated and untreated cells, corresponding well to the difference in the number of mitotic cells in the two samples: 80% for the nocodazole-treated sample and 3% for the untreated sample, as measured by microscopy.
In general terms: A western blot detects proteins with antibodies after separation by electrophoresis.

For data set [5], the system named is MCF-7 cells. Kind of data set: ELISA of mitotic cells (TG-3 antibody). The data set is classed as cell-based, human. How it is done:
TG-3 also recognizes mitotic cells in EUISA. In the ELISA assay, the cells may be grown in multi-well plates, lysed and transferred to protein-binding ELISA plates for adsorption to the plastic surface. The antigen may be detected by incubating with TG-3 antibody, an HRP-conjugated secondary antibody and performing a calorimetric determination of HRP activity.
as §1, with “Cells treated with 100 ng/ml nocodazole (Sigma), from a 1000-fold stock in DMSO, served as positive controls. Cells were incubated for 16-20 hours.” left out
ELISA of Mitotic Cells. […] Finally, 100 μl of 120 mM Na2HPO4, 100 mM citric acid (pH 4.0) containing 0.5 μg/ml 2,2′-azino-bis (3-ethyl-benzthiazoline-6-sulfonic acid) and 0.01% hydrogen peroxide was added for 1 hour at room temperature and absorbance at 405 nm was determined using a Dynex MRX™ plate reader.
On the technique in general: ELISA stands for enzyme-linked immunosorbent assay.

Where [6] appears, read: MCF-7 cells, FIG. 2, read-out: IC50, antimitotic activity as determined by ELICA.

As for `COC(=O)/C1=C/[C@@H]2[C@@H](C(C)C)CC=C(C)[C@@H]2C[C@H](OC(=O)/C=C/c2cn(C)cn2)[C@]2(C)C=C[C@@]1(O)O2` [Sarcodictyin A, sarcodictyin A], the IC50 (as a rule, the midpoint of a concentration-inhibition curve) with MCF-7 cells [1] (setting [6]) is approximately 2000 nM. In the case of `CO[C@]12C=C[C@](C)(O1)[C@@H](OC(=O)/C=C\c1cn(C)cn1)C[C@H]1C(C)=CC[C@H](C(C)C)[C@H]1/C=C\2CO[C@@H]1OC[C@@H](O)[C@@H](O)[C@@H]1OC(C)=O` [Z-eleutherobin], the IC50 with MCF-7 cells [1] (setting [6]) is approximately 250 nM.

As for `CO[C@]12C=C[C@](C)(O1)[C@@H](OC(=O)/C=C/c1cn(C)cn1)C[C@@H]1[C@H](/C=C\2CO[C@@H]2OC[C@@H](O)[C@@H](O)[C@@H]2OC(C)=O)[C@@H](C(C)C)C=C[C@@]1(C)O` [caribaeoside], in the data set on MCF-7 cells [1] (setting [6]), the IC50 was approximately 20000 nM. Turning to `CC(=O)O[C@@H]1[C@H](OC/C2=C/[C@@H]3[C@@H](C(C)C)CC=C(C)[C@@H]3C[C@H](OC(=O)/C=C/c3cn(C)cn3)[C@]3(C)C=C[C@@]2(O)O3)OC[C@@H](O)[C@H]1O` [desmethyleleutherobin], the IC50 is approximately 25 nM with MCF-7 cells [2] (MCF-7 cells, FIG. 4, read-out: IC50, antimitotic activity by microscopic examination of a standard cell spread) and approximately 20 nM with MCF-7 cells [1] (setting [6]). Also, the “overt toxicity to the mice” value in data set [3] (intraperitoneal injection, C3H mice bearing SCCVII tumor) was “no overt toxicity”. The tumor cells killed entry in data set [3] (intraperitoneal, doses of about 100 μg or more per mouse, 24 hours, FIG. 5) is recorded as “about 90%”.

In the case of `CO[C@]12C=C[C@](C)(O1)[C@@H](OC(=O)/C=C/c1cn(C)cn1)C[C@H]1C(C)=CC[C@H](C(C)C)[C@H]1/C=C\2COC1OCC(O)C(O)C1OC(C)=O` (stereo partly drawn) [eleutherobin], the IC50 in the data set with MCF-7 cells [2] (Homo sapiens, MCF7, read-out: IC50, antimitotic activity by microscopic examination of a standard cell spread) is approximately 200 nM; in the data set on MCF-7 cells [1] (Homo sapiens, MCF7, read-out: IC50, antimitotic activity as determined by ELICA), approximately 100 nM. `CO[C@]12C=C[C@](C)(O1)[C@@H](OC(=O)/C=C/c1cn(C)cn1)C[C@H]1C(C)=CC[C@H](C(C)C)[C@H]1/C=C\2CO[C@@H]1OC[C@@H](O)[C@@H](OC(C)=O)[C@@H]1O` [isoeleutherobin A]: in the data set on MCF-7 cells [1] (setting [6]), the IC50 is approximately 50 nM. As for `COC(=O)Nc1nc2ccc(C(=O)c3cccs3)cc2[nH]1` [nocodazole], the “number of mitotic cells as measured by microscopy” value in the data set with MCF-7 cells [2] (cells treated for 20 hours with nocodazole, untreated sample 3%) came out at 80%. Further, the “difference in band intensity between treated and untreated cells (TG-3 Western blot)” value with MCF-7 cells [4] was 27 fold.

In the case of `CC(=O)O[C@H]1C(=O)[C@@]2(C)[C@H]([C@H](OC(=O)c3ccccc3)[C@]3(O)C[C@H](OC(=O)[C@H](O)[C@@H](NC(=O)c4ccccc4)c4ccccc4)C(C)=C1C3(C)C)[C@]1(OC(C)=O)CO[C@@H]1C[C@@H]2O` [paclitaxel], the EC50 in the data set on MCF-7 cells [2] (Homo sapiens, MCF7, MCF-7 cells, 20 hours incubation, FIG. 1A, read-out: half-maximal activity, mitotic arrest measured by microscopy) is 10 nM; with MCF-7 cells [5] (Homo sapiens, MCF7, 20 hours incubation, FIG. 1B, read-out: half-maximal activity, mitotic arrest measured by ELISA) it was 4 nM; in the data set with MCF-7 cells [1] (Homo sapiens, MCF7, MCF-7 cells, FIG. 1B, read-out: half-maximal activity, mitotic arrest detected by ELICA), 1.5 nM. As for WF-1360 [Compound A], the IC50 in the data set on MCF-7 cells [5] (read-out: half-maximal antimitotic activity (IC50) as determined by ELISA) came out at 52 nM.

On to caribaeolin, for which, in the data set with MCF-7 cells [1] (setting [6]), the IC50 is approximately 20000 nM. desacetyleleutherobin: the IC50 in the data set with MCF-7 cells [1] (setting [6]) is approximately 400 nM.
